Data: US12268674B2, “Mi-2β inhibitor as an immunotherapy agent” (BioVentures, LLC, priority 2021, dated 2025)

What was measured:
Assay in all cases: ATPase profile (ATP acyl phosphate probe)
Type in all cases: binding
AK1 = biological target: T1, AK1 (Homo sapiens, UniProt P00568)
T1 construct: to get the native cell lysate; host or cells: A375 cell lysate

PAICS = biological target: T2, PAICS (Homo sapiens, UniProt P22234); settings: SEQ ID NO: 151, ATP BS
T2 construct: to get the native cell lysate; endogenous in cells; host or cells: A375

RUVBL2 = biological target: T3, RUVBL2 (Homo sapiens, UniProt Q9Y230); settings: RUVBL2, SEQ ID NO: 189, ATP BS
T3 construct: to get the native cell lysate; endogenous in cells; host or cells: A375 cell lysate

ACLY = biological target: T4, ACLY (Homo sapiens, UniProt P53396)
T4 construct: to get the native cell lysate; host or cells: A375 cell lysate

TTLL12 = biological target: T5, TTLL12 (Homo sapiens, UniProt Q14166)
T5 construct: to get the native cell lysate; endogenous in cells; host or cells: A375 cell lysate

NT5E = biological target: T6, NT5E (Homo sapiens, UniProt P21589); settings: SEQ ID NO: 140, ATP BS
T6 construct: to get the native cell lysate; endogenous in cells; host or cells: A375

FDPS = biological target: T7, FDPS (Homo sapiens, UniProt P14324); settings: SEQ ID NO: 78, ATP BS
T7 construct: endogenous in cells; host or cells: A375 cell lysate

CCT4 = biological target: T8, CCT4 (Homo sapiens, UniProt P50991); settings: CCT4, SEQ ID NO: 53, ATP BS
T8 construct: to get the native cell lysate; host or cells: A375 cell lysate

PRKAG1, PRKAG2 = settings: PRKAG1, PRKAG2, SEQ ID NO: 169, ATP BS
AK7 = biological target: T9, AK7 (Homo sapiens, UniProt Q96M32); settings: AK7, SEQ ID NO: 37, ATP BS
T9 construct: to get the native cell lysate; host or cells: A375 cell lysate

PSMC5 = biological target: T10, PSMC5 (Homo sapiens, UniProt P62195); settings: PSMC5, SEQ ID NO: 177, ATP BS
T10 construct: to get the native cell lysate; endogenous in cells; host or cells: A375 cell lysate

PGK1 = biological target: T11, PGK1 (Homo sapiens, UniProt P00558); settings: PGK1, SEQ ID NO: 160, ATP BS
T11 construct: to get the native cell lysate; endogenous in cells; host or cells: A375 cell lysate

ABCC4 = biological target: T12, ABCC4 (Homo sapiens, UniProt O15439)
T12 construct: to get the native cell lysate; host or cells: A375 cell lysate

ALDH16A1 = biological target: T13, ALDH16A1 (Homo sapiens, UniProt Q8IZ83); settings: ALDH16A1, SEQ ID NO: 38, ATP BS
T13 construct: to get the native cell lysate; host or cells: A375 cell lysate

ATP5B = biological target: T14, ATP5B (Homo sapiens, UniProt P06576); settings: SEQ ID NO: 48, ATP BS
T14 construct: to get the native cell lysate; host or cells: A375 cell lysate

SUCLA2 = biological target: T15, SUCLA2 (Homo sapiens, UniProt Q9P2R7)
T15 construct: to get the native cell lysate; endogenous in cells; host or cells: A375 cell lysate

GART = biological target: T16, GART (Homo sapiens, UniProt P22102)
T16 construct: endogenous in cells; host or cells: A375 cell lysate
T16 sequence (P22102 1-1010): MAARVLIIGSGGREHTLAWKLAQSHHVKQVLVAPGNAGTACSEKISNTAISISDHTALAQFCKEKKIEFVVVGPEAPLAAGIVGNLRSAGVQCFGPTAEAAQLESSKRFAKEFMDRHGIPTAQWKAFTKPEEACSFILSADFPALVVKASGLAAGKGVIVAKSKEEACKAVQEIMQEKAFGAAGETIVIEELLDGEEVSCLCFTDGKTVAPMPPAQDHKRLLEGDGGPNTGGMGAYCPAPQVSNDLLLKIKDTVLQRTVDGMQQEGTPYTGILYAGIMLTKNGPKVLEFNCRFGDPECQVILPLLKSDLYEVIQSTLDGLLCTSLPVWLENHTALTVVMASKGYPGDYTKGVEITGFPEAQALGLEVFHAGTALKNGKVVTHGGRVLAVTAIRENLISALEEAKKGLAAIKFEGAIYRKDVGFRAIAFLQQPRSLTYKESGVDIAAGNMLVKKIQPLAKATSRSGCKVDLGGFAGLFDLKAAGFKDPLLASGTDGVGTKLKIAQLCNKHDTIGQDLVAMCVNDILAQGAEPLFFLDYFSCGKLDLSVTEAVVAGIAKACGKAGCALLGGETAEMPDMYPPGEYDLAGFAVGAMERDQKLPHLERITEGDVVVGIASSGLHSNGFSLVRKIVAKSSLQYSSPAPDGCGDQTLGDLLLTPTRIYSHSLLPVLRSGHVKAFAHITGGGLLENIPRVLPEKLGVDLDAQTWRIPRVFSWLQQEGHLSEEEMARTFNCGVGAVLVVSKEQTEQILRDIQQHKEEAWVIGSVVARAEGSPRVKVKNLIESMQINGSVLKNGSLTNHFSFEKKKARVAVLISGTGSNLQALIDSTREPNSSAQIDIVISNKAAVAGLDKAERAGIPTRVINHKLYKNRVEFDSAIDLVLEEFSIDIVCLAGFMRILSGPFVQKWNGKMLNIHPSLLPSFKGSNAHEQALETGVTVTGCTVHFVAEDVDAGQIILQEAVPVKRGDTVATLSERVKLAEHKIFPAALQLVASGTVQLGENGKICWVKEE

PSMC2 = PSMC2 (Homo sapiens, UniProt P35998); settings: PSMC2, SEQ ID NO: 174, ATP BS
DDX18 = biological target: T17, DDX18 (Homo sapiens, UniProt Q9NVP1); settings: DDX18, SEQ ID NO: 66, ATP BS
T17 construct: endogenous in cells; host or cells: A375 cell lysate

HDDC3 = biological target: T18, HDDC3 (Homo sapiens, UniProt Q8N4P3)
T18 construct: to get the native cell lysate; endogenous in cells; host or cells: A375
T18 sequence (Q8N4P3 whole entry): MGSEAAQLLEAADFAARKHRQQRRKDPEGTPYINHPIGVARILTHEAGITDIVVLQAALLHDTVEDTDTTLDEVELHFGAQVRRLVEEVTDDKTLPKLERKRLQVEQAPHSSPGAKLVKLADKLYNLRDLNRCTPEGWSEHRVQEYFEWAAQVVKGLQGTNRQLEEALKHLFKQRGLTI

T12 sequence (O15439 whole entry): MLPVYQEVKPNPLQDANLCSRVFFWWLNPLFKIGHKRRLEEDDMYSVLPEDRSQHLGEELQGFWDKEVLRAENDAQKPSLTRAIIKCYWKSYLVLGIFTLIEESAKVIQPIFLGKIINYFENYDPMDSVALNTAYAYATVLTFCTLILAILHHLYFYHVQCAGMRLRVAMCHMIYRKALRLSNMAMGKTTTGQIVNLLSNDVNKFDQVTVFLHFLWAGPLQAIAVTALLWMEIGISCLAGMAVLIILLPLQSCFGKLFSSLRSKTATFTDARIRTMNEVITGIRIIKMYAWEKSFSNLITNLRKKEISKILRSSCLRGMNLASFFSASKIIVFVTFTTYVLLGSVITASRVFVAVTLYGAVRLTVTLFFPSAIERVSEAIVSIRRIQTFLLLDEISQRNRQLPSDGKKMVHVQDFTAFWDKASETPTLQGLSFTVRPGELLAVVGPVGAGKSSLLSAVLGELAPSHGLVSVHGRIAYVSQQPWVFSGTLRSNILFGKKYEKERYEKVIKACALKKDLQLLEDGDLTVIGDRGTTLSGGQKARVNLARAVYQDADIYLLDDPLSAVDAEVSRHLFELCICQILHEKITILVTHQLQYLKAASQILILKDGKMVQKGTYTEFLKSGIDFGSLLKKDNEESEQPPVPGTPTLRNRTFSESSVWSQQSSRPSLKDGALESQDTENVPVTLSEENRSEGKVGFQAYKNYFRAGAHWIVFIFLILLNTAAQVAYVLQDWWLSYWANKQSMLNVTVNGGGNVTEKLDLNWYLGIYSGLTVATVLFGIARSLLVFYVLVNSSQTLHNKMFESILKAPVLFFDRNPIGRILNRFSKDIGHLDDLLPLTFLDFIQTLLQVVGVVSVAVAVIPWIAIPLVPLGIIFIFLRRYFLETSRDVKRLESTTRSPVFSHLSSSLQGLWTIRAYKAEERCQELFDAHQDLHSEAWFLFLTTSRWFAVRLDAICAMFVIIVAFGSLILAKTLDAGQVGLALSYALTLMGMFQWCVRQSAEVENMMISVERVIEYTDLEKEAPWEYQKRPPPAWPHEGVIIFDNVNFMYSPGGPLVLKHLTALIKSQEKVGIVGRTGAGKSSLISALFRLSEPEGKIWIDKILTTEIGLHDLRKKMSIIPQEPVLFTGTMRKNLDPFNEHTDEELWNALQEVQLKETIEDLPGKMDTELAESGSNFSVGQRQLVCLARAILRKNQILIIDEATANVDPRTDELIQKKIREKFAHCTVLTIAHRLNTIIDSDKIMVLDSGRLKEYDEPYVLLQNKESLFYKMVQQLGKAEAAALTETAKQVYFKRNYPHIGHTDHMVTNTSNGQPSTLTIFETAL
T15 sequence (Q9P2R7 53-463): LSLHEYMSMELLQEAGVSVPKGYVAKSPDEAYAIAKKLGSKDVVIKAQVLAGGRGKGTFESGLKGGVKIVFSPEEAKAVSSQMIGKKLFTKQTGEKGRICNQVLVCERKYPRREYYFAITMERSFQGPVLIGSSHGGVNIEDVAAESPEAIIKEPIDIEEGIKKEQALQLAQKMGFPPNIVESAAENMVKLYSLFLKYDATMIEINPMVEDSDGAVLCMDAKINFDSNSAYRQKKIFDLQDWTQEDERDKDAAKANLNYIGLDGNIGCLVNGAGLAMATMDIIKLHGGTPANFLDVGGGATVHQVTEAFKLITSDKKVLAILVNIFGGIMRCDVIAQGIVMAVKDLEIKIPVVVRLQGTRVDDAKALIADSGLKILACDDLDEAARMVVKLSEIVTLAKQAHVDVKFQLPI
T15 sequence (P53597 41-346 partner): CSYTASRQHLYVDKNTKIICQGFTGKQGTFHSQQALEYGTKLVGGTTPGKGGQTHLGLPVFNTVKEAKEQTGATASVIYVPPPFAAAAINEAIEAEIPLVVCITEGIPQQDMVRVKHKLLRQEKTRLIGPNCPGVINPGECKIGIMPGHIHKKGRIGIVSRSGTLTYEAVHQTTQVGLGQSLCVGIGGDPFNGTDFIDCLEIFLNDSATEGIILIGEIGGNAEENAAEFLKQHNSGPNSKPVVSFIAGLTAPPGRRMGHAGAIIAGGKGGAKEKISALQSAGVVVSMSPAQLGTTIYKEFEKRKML
T1 sequence (P00568 whole entry): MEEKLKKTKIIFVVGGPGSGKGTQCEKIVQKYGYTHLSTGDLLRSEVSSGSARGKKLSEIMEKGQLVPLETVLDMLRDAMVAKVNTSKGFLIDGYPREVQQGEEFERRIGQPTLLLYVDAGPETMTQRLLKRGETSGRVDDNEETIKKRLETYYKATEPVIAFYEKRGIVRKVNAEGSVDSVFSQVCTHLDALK
T4 sequence (P53396 whole entry): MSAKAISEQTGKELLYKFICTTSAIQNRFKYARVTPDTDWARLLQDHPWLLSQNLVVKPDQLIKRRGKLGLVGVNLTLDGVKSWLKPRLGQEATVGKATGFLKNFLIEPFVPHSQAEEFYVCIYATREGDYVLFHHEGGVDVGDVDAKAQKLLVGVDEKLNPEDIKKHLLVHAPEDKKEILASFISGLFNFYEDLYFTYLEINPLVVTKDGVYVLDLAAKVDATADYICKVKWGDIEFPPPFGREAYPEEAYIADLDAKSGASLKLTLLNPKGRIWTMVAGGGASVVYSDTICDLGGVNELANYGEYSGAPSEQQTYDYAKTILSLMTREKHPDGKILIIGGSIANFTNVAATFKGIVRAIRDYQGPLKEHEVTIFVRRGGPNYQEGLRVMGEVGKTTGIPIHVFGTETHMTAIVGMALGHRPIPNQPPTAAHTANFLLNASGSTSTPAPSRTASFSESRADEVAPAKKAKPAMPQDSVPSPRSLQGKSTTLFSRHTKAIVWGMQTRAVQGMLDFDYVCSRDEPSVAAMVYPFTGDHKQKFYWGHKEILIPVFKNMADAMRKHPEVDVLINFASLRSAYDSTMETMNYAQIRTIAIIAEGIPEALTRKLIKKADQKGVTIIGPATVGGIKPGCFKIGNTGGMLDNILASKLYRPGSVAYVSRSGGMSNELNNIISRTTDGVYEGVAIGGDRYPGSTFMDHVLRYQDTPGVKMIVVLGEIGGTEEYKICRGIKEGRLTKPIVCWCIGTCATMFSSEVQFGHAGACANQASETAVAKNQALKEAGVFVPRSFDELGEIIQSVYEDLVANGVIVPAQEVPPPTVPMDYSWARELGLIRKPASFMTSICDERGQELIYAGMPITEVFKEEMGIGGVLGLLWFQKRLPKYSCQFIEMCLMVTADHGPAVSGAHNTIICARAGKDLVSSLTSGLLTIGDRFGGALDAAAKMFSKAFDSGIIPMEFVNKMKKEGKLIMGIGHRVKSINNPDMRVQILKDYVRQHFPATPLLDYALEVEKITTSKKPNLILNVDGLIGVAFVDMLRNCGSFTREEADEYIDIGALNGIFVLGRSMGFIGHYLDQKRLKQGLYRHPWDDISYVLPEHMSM
T5 sequence (Q14166 whole entry): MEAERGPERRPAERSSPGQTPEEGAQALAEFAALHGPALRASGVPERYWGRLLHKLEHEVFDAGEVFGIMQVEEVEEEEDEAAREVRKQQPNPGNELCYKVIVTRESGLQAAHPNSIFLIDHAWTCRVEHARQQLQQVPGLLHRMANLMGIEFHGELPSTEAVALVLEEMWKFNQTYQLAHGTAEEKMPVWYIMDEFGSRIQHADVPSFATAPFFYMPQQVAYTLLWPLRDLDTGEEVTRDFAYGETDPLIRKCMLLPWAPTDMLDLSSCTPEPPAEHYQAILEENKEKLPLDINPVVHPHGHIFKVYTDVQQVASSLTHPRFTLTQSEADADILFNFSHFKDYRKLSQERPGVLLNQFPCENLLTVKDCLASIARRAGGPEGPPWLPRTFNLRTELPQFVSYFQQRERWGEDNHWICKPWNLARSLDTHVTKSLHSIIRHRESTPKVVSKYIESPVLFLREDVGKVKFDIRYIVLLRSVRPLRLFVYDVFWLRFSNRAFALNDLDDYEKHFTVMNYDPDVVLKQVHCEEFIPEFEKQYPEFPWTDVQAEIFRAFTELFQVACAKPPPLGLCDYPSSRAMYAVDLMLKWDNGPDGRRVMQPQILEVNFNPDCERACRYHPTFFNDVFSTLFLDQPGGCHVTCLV
T6 sequence (P21589 27-549): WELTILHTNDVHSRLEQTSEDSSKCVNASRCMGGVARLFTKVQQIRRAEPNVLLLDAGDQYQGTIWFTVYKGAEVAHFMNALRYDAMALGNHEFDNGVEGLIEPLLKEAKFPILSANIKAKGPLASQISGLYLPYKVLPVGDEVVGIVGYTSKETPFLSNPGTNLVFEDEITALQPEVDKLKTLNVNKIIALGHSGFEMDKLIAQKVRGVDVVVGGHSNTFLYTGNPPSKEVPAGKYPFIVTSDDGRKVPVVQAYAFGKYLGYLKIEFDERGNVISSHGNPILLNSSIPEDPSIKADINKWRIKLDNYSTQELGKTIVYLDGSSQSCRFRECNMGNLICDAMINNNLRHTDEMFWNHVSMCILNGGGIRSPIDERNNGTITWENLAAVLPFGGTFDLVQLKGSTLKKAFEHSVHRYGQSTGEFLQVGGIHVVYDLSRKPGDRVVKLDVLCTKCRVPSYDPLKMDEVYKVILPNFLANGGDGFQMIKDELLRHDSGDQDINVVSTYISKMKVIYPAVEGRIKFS

## Cn1c(=O)[nH]c2ccc(-c3cccc(C(=O)NC4CCn5ccnc5C4)c3)cc21 (stereo not shown) [Z36-MP5, 3-(3-methyl-2-oxo-2,3-dihydro-1H-benzo[d]imidazol-5-yl)-N-(5,6,7,8-tetrahydroimidazo[1,2-a]pyridin-7-yl)benzamide]
AK1; AK1, SEQ ID NO: 31, ATP BS
  Inhibition (%) by 1 μM Z36-MP5: −7.19%
AK1; AK1, SEQ ID NO: 32, ATP BS
  Inhibition (%) by 1 μM Z36-MP5: −9.87%
PAICS
  Inhibition (%) by 1 μM Z36-MP5: 19.51%
RUVBL2
  Inhibition (%) by 1 μM Z36-MP5: −0.97%
ACLY; SEQ ID NO: 22, ATP BS
  Inhibition (%) by 1 μM Z36-MP5: −6.87%
ACLY; SEQ ID NO: 23, ATP BS
  Inhibition (%) by 1 μM Z36-MP5: 2.00%
TTLL12; TTLL12, SEQ ID NO: 215, ATP BS
  Inhibition (%) by 1 μM Z36-MP5: −5.29%
TTLL12; TTLL12, SEQ ID NO: 216, ATP BS
  Inhibition (%) by 1 μM Z36-MP5: −17.65%
NT5E
  Inhibition (%) by 1 μM Z36-MP5: −9.95%
FDPS
  Inhibition (%) by 1 μM Z36-MP5: 29.13%
CCT4
  Inhibition (%) by 1 μM Z36-MP5: 11.95%
PRKAG1, PRKAG2
  Inhibition (%) by 1 μM Z36-MP5: −7.97%
AK7
  Inhibition (%) by 1 μM Z36-MP5: 13.86%
PSMC5
  Inhibition (%) by 1 μM Z36-MP5: −3.98%
PGK1
  Inhibition (%) by 1 μM Z36-MP5: −4.49%
ABCC4; ABCC4, SEQ ID NO: 11, ATP BS
  Inhibition (%) by 1 μM Z36-MP5: 1.76%
ABCC4; ABCC4, SEQ ID NO: 12, ATP BS
  Inhibition (%) by 1 μM Z36-MP5: 8.93%
ALDH16A1
  Inhibition (%) by 1 μM Z36-MP5: −1.13%
ATP5B
  Inhibition (%) by 1 μM Z36-MP5: −14.96%
SUCLA2; SUCLA2, SEQ ID NO: 198, ATP BS
  Inhibition (%) by 1 μM Z36-MP5: −0.65%
SUCLA2; SUCLA2, SEQ ID NO: 199, ATP BS
  Inhibition (%) by 1 μM Z36-MP5: 9.97%
GART; SEQ ID NO: 80, ATP BS
  Inhibition (%) by 1 μM Z36-MP5: −8.85%
GART; SEQ ID NO: 81, ATP BS
  Inhibition (%) by 1 μM Z36-MP5: −7.56%
GART; SEQ ID NO: 82, ATP BS
  Inhibition (%) by 1 μM Z36-MP5: −2.13%
PSMC2
  Inhibition (%) by 1 μM Z36-MP5: −6.44%
DDX18
  Inhibition (%) by 1 μM Z36-MP5: −5.33%
HDDC3; HDDC3, SEQ ID NO: 90, ATP BS
  Inhibition (%) by 1 μM Z36-MP5: 1.23%
HDDC3; HDDC3, SEQ ID NO: 91, ATP BS
  Inhibition (%) by 1 μM Z36-MP5: 17.25%
